Common to all, as to type: in vivo
For experiment [1], the system named is Myzus persicae (Green Peach Aphid). Put plainly: Example B5: Myzus persicae feeding/contact activity, sunflower leaf discs. The conditions noted are these: foliar, 144 h, application rate of 200 ppm, 6 days after infestation. The procedure:
Example B5: Myzus persicae (Green Peach Aphid): Feeding/Contact Activity
Sunflower leaf discs were placed onto agar in a 24-well microtiter plate and sprayed with aqueous test solutions prepared from 10,000 ppm DMSO stock solutions. After drying, the leaf discs were infested with an aphid population of mixed ages. The samples were assessed for mortality 6 days after infestation.

For experiment [2], the system named is Euschistus heros (Neotropical Brown Stink Bug). As to the kind of experiment: Example B3: Euschistus heros, sprayed soybean leaves, N2 nymphs. The conditions noted are these: 120 h, application rate of 200 ppm, 5 days after infestation, read-out: effect in at least one of the two categories (mortality or growth inhibition). Here is the method:
Example B3: Euschistus heros (Neotropical Brown Stink Bug)
Soybean leaves on agar in 24-well microtiter plates were sprayed with aqueous test solutions prepared from 10,000 ppm DMSO stock solutions. After drying the leaves were infested with N2 nymphs. The samples were assessed for mortality and growth inhibition in comparison to untreated samples 5 days after infestation. The following compounds gave an effect of at least 80% in at least one of the two categories (mortality or growth inhibition) at an application rate of 200 ppm: […]

The test system of experiment [3] is Diabrotica balteata (Corn Root Worm). Put plainly: Example B2: Diabrotica balteata, sprayed maize sprouts, L2 larvae. The note with it: for percent effect (mortality or growth inhibition) at 200 ppm: Diabrotica balteata, 96 h, application rate of 200 ppm, 4 days after infestation, L2 larvae, read-out: effect in at least one of the two categories (mortality or growth inhibition). The procedure: Example B2: Diabrotica balteata (Corn Root Worm)
Maize sprouts placed onto an agar layer in 24-well microtiter plates were treated with aqueous test solutions prepared from 10,000 ppm DMSO stock solutions by spraying. After drying, the plates were infested with L2 larvae (6 to 10 per well). The samples were assessed for mortality and growth inhibition in comparison to untreated samples 4 days after infestation. The following compounds gave an effect of at least 80% in at least one of the two categories (mortality or growth inhibition) at an application rate of 200 ppm:
(§1) Insecticidal action against Diabrotica balteata (Corn root worm), Plutella xylostella (Diamond black moth), and Spodoptera littoralis (Egyptian cotton leaf worm). The tests were carried out as described in biological examples B2, B8 and B9, respectively, with the larval feeding/contact activity (mortality only) being reported as Breakpoint (BP80) values in parts per million (i.e. the lowest concentration which gives 80% larval mortality).

Experiment [4] has as its system Spodoptera littoralis (Egyptian Cotton Leaf Worm). Put plainly: Example B9: Spodoptera littoralis, cotton leaf discs, L1 larvae. The note with it: for percent control (mortality, anti-feedant effect or growth inhibition) at 200 ppm: Spodoptera littoralis, foliar, 72 h, application rate of 200 ppm, 3 days after infestation, L1 larvae. The procedure:
Example B9: Spodoptera littoralis (Egyptian Cotton Leaf Worm)
Cotton leaf discs were placed onto agar in 24-well microtiter plates and sprayed with aqueous test solutions prepared from 10,000 ppm DMSO stock solutions. After drying the leaf discs were infested with five L1 larvae. The samples were assessed for mortality, anti-feeding effect, and growth inhibition in comparison to untreated samples 3 days after infestation. Control of Spodoptera littoralis by a test sample is given when at least one of the categories mortality, anti-feedant effect, and growth inhibition is higher than the untreated sample.
as §1

Experiment [5] relates to Plutella xylostella (Diamond Back Moth). Put plainly: Example B8: Plutella xylostella, artificial diet, L2 larvae. The note with it: for percent effect (mortality or growth inhibition) at 200 ppm: Plutella xylostella, 120 h, application rate of 200 ppm, 5 days after infestation, L2 larvae, read-out: effect in at least one of the two categories (mortality or growth inhibition). Here is the method: Example B8: Plutella xylostella (Diamond Back Moth)
24-well microtiter plates with artificial diet were treated with aqueous test solutions prepared from 10,000 ppm DMSO stock solutions by pipetting. After drying, the plates were infested with L2 larvae (10 to 15 per well). The samples were assessed for mortality and growth inhibition in comparison to untreated samples 5 days after infestation. The following compounds gave an effect of at least 80% in at least one of the two categories (mortality or growth inhibition) at an application rate of 200 ppm:
as §1

Some results are limits rather than exact numbers.

The record followed here is US10125139B2, “Pesticidally active polycyclic derivatives with sulfur substituted five-membered ring heterocycles” (Syngenta Participations AG, priority 2015, dated 2018).

What is called mortality is the share of the test organisms that died. Lower therefore signals more survivors. In the case of `CCSc1nc(Br)sc1-c1nc2cc(C(F)(F)F)ncc2n1C` [Example I-5, 2-bromo-4-ethylsulfanyl-5-[3-methyl-6-(trifluoromethyl)imidazo[4,5-c]pyridin-2-yl]thiazole], the mortality at 200 ppm in experiment [1] is no less than 80%.
Turning to `CCS(=O)(=O)c1cc(I)sc1-c1nc2cc(SC(F)(F)F)ncc2n1C` [Example I-8, 2-(3-ethylsulfonyl-5-iodo-2-thienyl)-3-methyl-6-(trifluoromethylsulfanyl)imidazo[4,5-c]pyridine], the percent effect (mortality or growth inhibition) at 200 ppm in experiment [2], in experiment [3] and in experiment [5] was no less than 80% in each case. The same compound displayed a mortality at 200 ppm in experiment [1] of no less than 80%. Also, the percent control (mortality, anti-feedant effect or growth inhibition) at 200 ppm in experiment [4] is no less than 80%.
Turning to `CCS(=O)(=O)c1sc(Br)nc1-c1nc2cc(C(F)(F)F)ncc2n1C` [Example I-9, 2-bromo-5-ethylsulfonyl-4-[3-methyl-6-(trifluoromethyl)imidazo[4,5-c]pyridin-2-yl]thiazole], in experiment [3], the percent effect (mortality or growth inhibition) at 200 ppm is no less than 80%.
In the case of `CCSc1sc(Br)nc1-c1nc2cc(SC(F)(F)F)ncc2n1C` [Example I-10], the percent effect (mortality or growth inhibition) at 200 ppm in experiment [5] was no less than 80%.
Turning to `CCS(=O)(=O)c1nc(Br)sc1-c1nc2cc(SC(F)(F)F)ncc2n1C` [Example I-11], in experiment [3], the percent effect (mortality or growth inhibition) at 200 ppm is no less than 80%.
Turning to `CCS(=O)(=O)c1cc(-n2ccc(C(F)(F)F)n2)sc1-c1nc2cc(C(F)(F)F)ncc2n1C` [Example P-2, 2-[3-ethylsulfonyl-5-[3-(trifluoromethyl)pyrazol-1-yl]-2-thienyl]-3-methyl-6-(trifluoromethyl)imidazo[4,5-c]pyridine], the percent effect (mortality or growth inhibition) at 200 ppm in experiment [2], in experiment [3] and in experiment [5] was no less than 80% each time. Further, the mortality at 200 ppm in experiment [1] is no less than 80%. The percent control (mortality, anti-feedant effect or growth inhibition) at 200 ppm in experiment [4] was no less than 80%.
On to `CCSc1cc(-n2ccc(C(F)(F)F)n2)sc1-c1nc2cc(C(F)(F)F)ncc2n1C` [Example P-3, 2-[3-ethylsulfanyl-5-[3-(trifluoromethyl)pyrazol-1-yl]-2-thienyl]-3-methyl-6-(trifluoromethyl)imidazo[4,5-c]pyridine], for which the percent effect (mortality or growth inhibition) at 200 ppm in experiment [3] and in experiment [5] was no less than 80% in each case.
Consider `CCSc1c(-c2nc3cc(C(F)(F)F)ncc3n2C)sc(-c2ccc(Cl)cc2)c1Cl` [Example P-7, 2-[4-chloro-5-(4-chlorophenyl)-3-ethylsulfanyl-2-thienyl]-3-methyl-6-(trifluoromethyl)imidazo[4,5-c]pyridine], for which the percent effect (mortality or growth inhibition) at 200 ppm in experiment [2], in experiment [3] and in experiment [5] was no less than 80% each time. In experiment [4], this compound had a percent control (mortality, anti-feedant effect or growth inhibition) at 200 ppm of no less than 80%.
Regarding `CCS(=O)(=O)c1c(-c2nc3cc(C(F)(F)F)ncc3n2C)sc(-c2ccc(Cl)cc2)c1Cl` [Example P-8, 2-[4-chloro-5-(4-chlorophenyl)-3-ethylsulfonyl-2-thienyl]-3-methyl-6-(trifluoromethyl)imidazo[4,5-c]pyridine], the percent effect (mortality or growth inhibition) at 200 ppm in experiment [3] and in experiment [5] was no less than 80% throughout. Further, in experiment [4], the percent control (mortality, anti-feedant effect or growth inhibition) at 200 ppm is no less than 80%.
In the case of `CCS(=O)(=O)c1cc(-n2ccc(C(F)(F)F)n2)sc1-c1nc2cc(C(F)(F)F)nnc2n1C` [Example P-12, 6-[3-ethylsulfonyl-5-[3-(trifluoromethyl)pyrazol-1-yl]-2-thienyl]-7-methyl-3-(trifluoromethyl)imidazo[4,5-c]pyridazine], the percent effect (mortality or growth inhibition) at 200 ppm in experiment [2], in experiment [3] and in experiment [5] was no less than 80% in each case. The mortality at 200 ppm in experiment [1] is no less than 80%. This compound displayed a percent control (mortality, anti-feedant effect or growth inhibition) at 200 ppm in experiment [4] of no less than 80%.
For `CCS(=O)(=O)c1cc(-c2ncccn2)sc1-c1nc2cc(SC(F)(F)F)ncc2n1C` [Example P-16, 2-(3-ethylsulfonyl-5-pyrimidin-2-yl-2-thienyl)-3-methyl-6-(trifluoromethylsulfanyl)imidazo[4,5-c]pyridine], the percent effect (mortality or growth inhibition) at 200 ppm in experiment [2], in experiment [3] and in experiment [5] was no less than 80% in each case. The percent control (mortality, anti-feedant effect or growth inhibition) at 200 ppm in experiment [4] was no less than 80%.
`CCS(=O)(=O)c1sc(-c2ccc(Cl)cc2)nc1-c1nc2cc(C(F)(F)F)ncc2n1C` [Example P-19, 2-(4-chlorophenyl)-5-ethylsulfonyl-4-[3-methyl-6-(trifluoromethyl)imidazo[4,5-c]pyridin-2-yl]thiazole]: the percent effect (mortality or growth inhibition) at 200 ppm in experiment [3] is no less than 80%. Moreover, the percent control (mortality, anti-feedant effect or growth inhibition) at 200 ppm in experiment [4] was no less than 80%.
As to `CCS(=O)(=O)c1sc(-n2ccc(C(F)(F)F)n2)nc1-c1nc2cc(C(F)(F)F)ncc2n1C` [Example P-20, 5-ethylsulfonyl-4-[3-methyl-6-(trifluoromethyl)imidazo[4,5-c]pyridin-2-yl]-2-[3-(trifluoromethyl)pyrazol-1-yl]thiazole], the percent effect (mortality or growth inhibition) at 200 ppm in experiment [2], in experiment [3] and in experiment [5] was no less than 80% throughout. In addition, the percent control (mortality, anti-feedant effect or growth inhibition) at 200 ppm in experiment [4] is no less than 80%.
For `CCSc1sc(-n2ccc(C(F)(F)F)n2)nc1-c1nc2cc(C(F)(F)F)ncc2n1C` [Example P-21, 5-ethylsulfanyl-4-[3-methyl-6-(trifluoromethyl)imidazo[4,5-c]pyridin-2-yl]-2-[3-(trifluoromethyl)pyrazol-1-yl]thiazole], the percent effect (mortality or growth inhibition) at 200 ppm in experiment [3] was no less than 80%.
For the compound `CCS(=O)(=O)c1sc(C2CC2)nc1-c1nc2cc(C(F)(F)F)ncc2n1C` [Example P-22, 2-cyclopropyl-5-ethylsulfonyl-4-[3-methyl-6-(trifluoromethyl)imidazo[4,5-c]pyridin-2-yl]thiazole], the percent effect (mortality or growth inhibition) at 200 ppm in experiment [2], in experiment [3] and in experiment [5] was no less than 80% throughout. The compound further gave a mortality at 200 ppm in experiment [1] of no less than 80%. In experiment [4], the percent control (mortality, anti-feedant effect or growth inhibition) at 200 ppm is no less than 80%.
With `CCS(=O)(=O)c1sc(-c2ncccn2)nc1-c1nc2cc(C(F)(F)F)ncc2n1C` [Example P-23, 5-ethylsulfonyl-4-[3-methyl-6-(trifluoromethyl)imidazo[4,5-c]pyridin-2-yl]-2-pyrimidin-2-yl-thiazole], the percent effect (mortality or growth inhibition) at 200 ppm in experiment [3] and in experiment [5] was no less than 80% throughout. The percent control (mortality, anti-feedant effect or growth inhibition) at 200 ppm in experiment [4] was no less than 80%.
Regarding `CCS(=O)(=O)c1sc(-c2ccc(Cl)cc2)nc1-c1nc2cc(SC(F)(F)F)ncc2n1C` [Example P-24], in experiment [4], the percent control (mortality, anti-feedant effect or growth inhibition) at 200 ppm is no less than 80%. Further, in experiment [5], the percent effect (mortality or growth inhibition) at 200 ppm was no less than 80%.
Take `CCS(=O)(=O)c1sc(-c2cc(F)cc(F)c2)nc1-c1nc2cc(SC(F)(F)F)ncc2n1C` [Example P-26]: the percent effect (mortality or growth inhibition) at 200 ppm in experiment [3] and in experiment [5] was no less than 80% throughout. This compound yielded a percent control (mortality, anti-feedant effect or growth inhibition) at 200 ppm in experiment [4] of no less than 80%.
Turning to `CCS(=O)(=O)c1cc(C(F)(F)F)sc1-c1nc2cc(C(F)(F)F)ncc2n1C` [Example V14.01, reference compound], the “BP80 (Breakpoint, lowest concentration which gives 80% larval mortality) Diabrotica balteata” value in experiment [3] (larval feeding/contact activity, mortality only, test as in B2) came to 50 ppm. In experiment [4] (larval feeding/contact activity, mortality only, test as in B9), the “BP80 (Breakpoint, lowest concentration which gives 80% larval mortality) Spodoptera littoralis” value was 50 ppm. In experiment [5] (larval feeding/contact activity, mortality only, test as in B8), the “BP80 (Breakpoint, lowest concentration which gives 80% larval mortality) Plutella xylostella” value came to 50 ppm.
